Values quoted from earlier work, collected in patent US8802142B2, “Pharmaceutical compositions comprising levetiracetam and process for their preparation” (UCB Pharma, S.A., priority 2005, dated 2014).

Settings: A. J. Gower et al., Eur. J. Pharmacol., 222, 1992, 193-203

Q: For `CC[C@@H](C(N)=O)N1CCCC1=O` [Levetiracetam, (S)-(−)-α-ethyl-2-oxo-1-pyrrolidine acetamide], which “activity in the treatment of epilepsy” value is on record?
A: Its value is “effective”.

Q: With “(R)-(−)-α-ethyl-2-oxo-1-pyrrolidine acetamide” as the compound, how does the “activity in the treatment of epilepsy” value read?
A: Its value is “completely lacks activity”.
